Source: patent US20160122320A1, “USEFUL COMBINATIONS OF MONOBACTAM ANTIBIOTICS WITH BETA-LACTAMASE INHIBITORS” (Basilea Pharmaceutica AG, priority 2005, published 2016)

Key:
Assay in all cases: MIC, NCCLS broth microdilution
Assay type in all cases: cell-based
Enterobacter cloacae MRW = tested on: Enterobacter cloacae MRW
Description: (§1) In all cases the final concentration of DMSO incubated with the bacteria is less than or equal to 1%. […] Plates were incubated overnight at an appropriate temperature (30° C. or 37° C.) and optical densities assessed by eye. The MIC value is defined as the lowest compound concentration completely inhibiting visible growth of the test organism. When combinations between compounds of formula I with compounds of formula II and are evaluated the compounds of formula I are tested in dilution series as described above while the compounds of formula II and III-XIII were present in all wells at a constant concentration of 4 μg/mL each.

[1] = tested on: Enterobacter cloacae ATCC13047/CRO-R
Description: (§2) Antimicrobial activity of the compounds and of their combinations was determined against a selection of organisms according to the standard procedures described by the National Committee for Clinical Laboratory Standards (National Committee for Clinical Laboratory. Standards (2000). Methods for Dilution Antimicrobial Susceptibility Tests for Bacteria That Grow Aerobically-Fifth Edition: Approved Standard M7-A5. NCCLS, Wayne, Pa., USA).
as §1

[2] = tested on: Stenotrophomonas malthophilia 1AC736; conditions: for MIC of antibiotic: antibiotic alone, no inhibitor
[3] = tested on: Klebsiella pneumoniae CF104
Enterobacter cloacae P99 = tested on: Enterobacter cloacae P99
Description: as §2, §1

[4] = tested on: Enterobacter cloacae M4018
Description: as §1

[5] = tested on: Pseudomonas aeruginosa MK1184
[6] = tested on: Enterobacter aerogenes B1
Description: as §2, §1

[7] = tested on: Pseudomonas aeruginosa 1973E
Summary of the method: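 MIC read by eye as the lowest concentration giving no visible growth after overnight incubation (30° C. or 37° C.), following NCCLS M7-A5 microdilution with ≤1% final DMSO. For combinations, partner compounds (formula II, III-XIII) were fixed at 4 μg/mL each while formula I compounds were titrated.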

[8] = tested on: Enterobacter cloacae B1102
Description: as §2, §1

[9] = tested on: Enterobacter aerogenes Zayakosky; conditions: Enterobacter aerogenes Zayakosky
Description: as §2, §1

Serratia marcescens S6 = tested on: Serratia marcescens S6
Description: as §2, §1

Acinetobacter sp. J2 = conditions: for MIC of antibiotic: antibiotic alone, no inhibitor
[10] = + compound 323 and clavulanate, 4 mg/L each
[11] = with clavulanate (clavulanic acid)

## CC1C(NC(=O)C(=NOCc2cc(=O)c(O)cn2O)c2csc(N)n2)C(=O)N1S(=O)(=O)O (stereo not drawn) [Compound 1]
Enterobacter cloacae MRW; + clavulanate 4 mg/L
  Minimal Inhibitory Concentration of antibiotic at fixed inhibitor concentration of 4 mg/L: 32 mg/L
Enterobacter cloacae MRW; + compound 206 4 mg/L
  Minimal Inhibitory Concentration of antibiotic at fixed inhibitor concentration of 4 mg/L: 16 mg/L
Enterobacter cloacae MRW; [10]
  Minimal Inhibitory Concentration of antibiotic at fixed inhibitor concentration of 4 mg/L: 4 mg/L
Enterobacter cloacae MRW; + compound 501 4 mg/L
  Minimal Inhibitory Concentration of antibiotic at fixed inhibitor concentration of 4 mg/L: 32 mg/L
Enterobacter cloacae MRW; antibiotic alone
  Minimal Inhibitory Concentration of antibiotic: >32 mg/L
[1]; + clavulanate 4 mg/L
  Minimal Inhibitory Concentration of antibiotic at fixed inhibitor concentration of 4 mg/L: >32 mg/L
[1]; + compound 206 4 mg/L
  Minimal Inhibitory Concentration of antibiotic at fixed inhibitor concentration of 4 mg/L: >32 mg/L
[1]; [10]
  Minimal Inhibitory Concentration of antibiotic at fixed inhibitor concentration of 4 mg/L: 8 mg/L
[1]; + compound 501 4 mg/L
  Minimal Inhibitory Concentration of antibiotic at fixed inhibitor concentration of 4 mg/L: >32 mg/L
[1]; antibiotic alone
  Minimal Inhibitory Concentration of antibiotic: >32 mg/L
[2]; Stenotrophomonas malthophilia 1AC736
  MIC of antibiotic: 0.5 µg/mL
[2]; Stenotrophomonas maltophilia 1AC736
  MIC of antibiotic: 1 µg/mL
[2]; Stenotrophomonas maltophilia 1AC736, with 102 and sulbactam
  MIC of antibiotic at fixed inhibitor concentration of 4 mg/L: 2 µg/mL
[2]; Stenotrophomonas maltophilia 1AC736, with 111 and clavulanate
  MIC of antibiotic at fixed inhibitor concentration of 4 mg/L: 0.125 µg/mL
[2]; Stenotrophomonas maltophilia 1AC736, with 202 and clavulanate
  MIC of antibiotic at fixed inhibitor concentration of 4 mg/L: 0.125 µg/mL
[2]; Stenotrophomonas maltophilia 1AC736, with 206 and clavulanate
  MIC of antibiotic at fixed inhibitor concentration of 4 mg/L: 0.125 µg/mL
[2]; Stenotrophomonas maltophilia 1AC736, with 323 and clavulanate
  MIC of antibiotic at fixed inhibitor concentration of 4 mg/L: 0.125 µg/mL
[2]; Stenotrophomonas maltophilia 1AC736, with 323 and sulbactam
  MIC of antibiotic at fixed inhibitor concentration of 4 mg/L: 0.125 µg/mL
[2]; Stenotrophomonas maltophilia 1AC736, with 324 and clavulanate
  MIC of antibiotic at fixed inhibitor concentration of 4 mg/L: 0.125 µg/mL
[2]; Stenotrophomonas maltophilia 1AC736, with 501
  MIC of antibiotic at fixed inhibitor concentration of 4 mg/L: 0.25 µg/mL
[2]; Stenotrophomonas maltophilia 1AC736, with clavulanate (clavulanic acid)
  MIC of antibiotic at fixed inhibitor concentration of 4 mg/L: 0.5 µg/mL
[3]; antibiotic alone, no inhibitor
  MIC of antibiotic: >32 µg/mL
[3]; with 102 and clavulanate
  MIC of antibiotic at fixed inhibitor concentration of 4 mg/L: 1 µg/mL
[3]; with 111 and clavulanate
  MIC of antibiotic at fixed inhibitor concentration of 4 mg/L: <0.06 µg/mL
[3]; with 202 and clavulanate
  MIC of antibiotic at fixed inhibitor concentration of 4 mg/L: 2 µg/mL
[3]; with 206 and clavulanate
  MIC of antibiotic at fixed inhibitor concentration of 4 mg/L: 0.25 µg/mL
[3]; with 323 and clavulanate
  MIC of antibiotic at fixed inhibitor concentration of 4 mg/L: 2 µg/mL
[3]; with 323 and sulbactam
  MIC of antibiotic at fixed inhibitor concentration of 4 mg/L: 1 µg/mL
[3]; with 324 and clavulanate
  MIC of antibiotic at fixed inhibitor concentration of 4 mg/L: 1 µg/mL
[3]; with 501
  MIC of antibiotic at fixed inhibitor concentration of 4 mg/L: 0.5 µg/mL
[3]; [11]
  MIC of antibiotic at fixed inhibitor concentration of 4 mg/L: 0.5 µg/mL
Enterobacter cloacae P99; antibiotic alone, no inhibitor
  MIC of antibiotic: >32 µg/mL
Enterobacter cloacae P99; with 102 and clavulanate
  MIC of antibiotic at fixed inhibitor concentration of 4 mg/L: 4 µg/mL
Enterobacter cloacae P99; with 111 and clavulanate
  MIC of antibiotic at fixed inhibitor concentration of 4 mg/L: 4 µg/mL
Enterobacter cloacae P99; with 202 and clavulanate
  MIC of antibiotic at fixed inhibitor concentration of 4 mg/L: 16 µg/mL
Enterobacter cloacae P99; with 206 and clavulanate
  MIC of antibiotic at fixed inhibitor concentration of 4 mg/L: 8 µg/mL
Enterobacter cloacae P99; with 323 and clavulanate
  MIC of antibiotic at fixed inhibitor concentration of 4 mg/L: 4 µg/mL
Enterobacter cloacae P99; with 323 and sulbactam
  MIC of antibiotic at fixed inhibitor concentration of 4 mg/L: 4 µg/mL
Enterobacter cloacae P99; with 324 and clavulanate
  MIC of antibiotic at fixed inhibitor concentration of 4 mg/L: 4 µg/mL
Enterobacter cloacae P99; with 501
  MIC of antibiotic at fixed inhibitor concentration of 4 mg/L: 16 µg/mL
Enterobacter cloacae P99; [11]
  MIC of antibiotic at fixed inhibitor concentration of 4 mg/L: 32 µg/mL
[4]; + clavulanate 4 mg/L
  Minimal Inhibitory Concentration of antibiotic at fixed inhibitor concentration of 4 mg/L: >32 mg/L
[4]; + compound 206 4 mg/L
  Minimal Inhibitory Concentration of antibiotic at fixed inhibitor concentration of 4 mg/L: 8 mg/L
[4]; [10]
  Minimal Inhibitory Concentration of antibiotic at fixed inhibitor concentration of 4 mg/L: 2 mg/L
[4]; + compound 501 4 mg/L
  Minimal Inhibitory Concentration of antibiotic at fixed inhibitor concentration of 4 mg/L: 16 mg/L
[4]; antibiotic alone
  Minimal Inhibitory Concentration of antibiotic: 32 mg/L
[5]; antibiotic alone, no inhibitor
  MIC of antibiotic: >32 µg/mL
[5]; with 102 and clavulanate
  MIC of antibiotic at fixed inhibitor concentration of 4 mg/L: 4 µg/mL
[5]; with 103 and clavulanate
  MIC of antibiotic at fixed inhibitor concentration of 4 mg/L: 8 µg/mL
[5]; with 111 and clavulanate
  MIC of antibiotic at fixed inhibitor concentration of 4 mg/L: 8 µg/mL
[5]; with 202 and clavulanate
  MIC of antibiotic at fixed inhibitor concentration of 4 mg/L: 8 µg/mL
[5]; with 206 and clavulanate
  MIC of antibiotic at fixed inhibitor concentration of 4 mg/L: >32 µg/mL
[5]; with 323 and clavulanate
  MIC of antibiotic at fixed inhibitor concentration of 4 mg/L: 16 µg/mL
[5]; with 323 and sulbactam
  MIC of antibiotic at fixed inhibitor concentration of 4 mg/L: 4 µg/mL
[5]; with 501
  MIC of antibiotic at fixed inhibitor concentration of 4 mg/L: >32 µg/mL
[5]; [11]
  MIC of antibiotic at fixed inhibitor concentration of 4 mg/L: >32 µg/mL
[6]; + clavulanate 4 mg/L
  Minimal Inhibitory Concentration of antibiotic at fixed inhibitor concentration of 4 mg/L: >32 mg/L
[6]; + compound 206 4 mg/L
  Minimal Inhibitory Concentration of antibiotic at fixed inhibitor concentration of 4 mg/L: 16 mg/L
[6]; [10]
  Minimal Inhibitory Concentration of antibiotic at fixed inhibitor concentration of 4 mg/L: 4 mg/L
[6]; + compound 501 4 mg/L
  Minimal Inhibitory Concentration of antibiotic at fixed inhibitor concentration of 4 mg/L: >32 mg/L
[6]; antibiotic alone
  Minimal Inhibitory Concentration of antibiotic: 32 mg/L
[7]; antibiotic alone, no inhibitor
  MIC of antibiotic: 16 µg/mL
[7]; with 102 and clavulanate
  MIC of antibiotic at fixed inhibitor concentration of 4 mg/L: 2 µg/mL
[7]; with 111 and clavulanate
  MIC of antibiotic at fixed inhibitor concentration of 4 mg/L: 4 µg/mL
[7]; with 202 and clavulanate
  MIC of antibiotic at fixed inhibitor concentration of 4 mg/L: 4 µg/mL
[7]; with 206 and clavulanate
  MIC of antibiotic at fixed inhibitor concentration of 4 mg/L: 4 µg/mL
[7]; with 323 and clavulanate
  MIC of antibiotic at fixed inhibitor concentration of 4 mg/L: 8 µg/mL
[7]; with 323 and sulbactam
  MIC of antibiotic at fixed inhibitor concentration of 4 mg/L: 4 µg/mL
[7]; with 324 and clavulanate
  MIC of antibiotic at fixed inhibitor concentration of 4 mg/L: 8 µg/mL
[7]; with 501
  MIC of antibiotic at fixed inhibitor concentration of 4 mg/L: 8 µg/mL
[7]; [11]
  MIC of antibiotic at fixed inhibitor concentration of 4 mg/L: 8 µg/mL
[8]; + clavulanate 4 mg/L
  Minimal Inhibitory Concentration of antibiotic at fixed inhibitor concentration of 4 mg/L: 32 mg/L
[8]; + compound 206 4 mg/L
  Minimal Inhibitory Concentration of antibiotic at fixed inhibitor concentration of 4 mg/L: 16 mg/L
[8]; [10]
  Minimal Inhibitory Concentration of antibiotic at fixed inhibitor concentration of 4 mg/L: 8 mg/L
[8]; + compound 501 4 mg/L
  Minimal Inhibitory Concentration of antibiotic at fixed inhibitor concentration of 4 mg/L: 16 mg/L
[8]; antibiotic alone
  Minimal Inhibitory Concentration of antibiotic: >32 mg/L
[9]; + clavulanate 4 mg/L
  Minimal Inhibitory Concentration of antibiotic at fixed inhibitor concentration of 4 mg/L: >32 mg/L
[9]; + compound 206 4 mg/L
  Minimal Inhibitory Concentration of antibiotic at fixed inhibitor concentration of 4 mg/L: >32 mg/L
[9]; [10]
  Minimal Inhibitory Concentration of antibiotic at fixed inhibitor concentration of 4 mg/L: 16 mg/L
[9]; + compound 501 4 mg/L
  Minimal Inhibitory Concentration of antibiotic at fixed inhibitor concentration of 4 mg/L: >32 mg/L
[9]; antibiotic alone
  Minimal Inhibitory Concentration of antibiotic: >32 mg/L
Serratia marcescens S6; with 111 and clavulanate
  MIC of antibiotic at fixed inhibitor concentration of 4 mg/L: 0.25 µg/mL
Serratia marcescens S6; with 202 and clavulanate
  MIC of antibiotic at fixed inhibitor concentration of 4 mg/L: 0.5 µg/mL
Serratia marcescens S6; with 206 and clavulanate
  MIC of antibiotic at fixed inhibitor concentration of 4 mg/L: 4 µg/mL
Serratia marcescens S6; with 323 and clavulanate
  MIC of antibiotic at fixed inhibitor concentration of 4 mg/L: 0.25 µg/mL
Serratia marcescens S6; with 323 and sulbactam
  MIC of antibiotic at fixed inhibitor concentration of 4 mg/L: 0.5 µg/mL
Serratia marcescens S6; with 324 and clavulanate
  MIC of antibiotic at fixed inhibitor concentration of 4 mg/L: 1 µg/mL
Serratia marcescens S6; with 501
  MIC of antibiotic at fixed inhibitor concentration of 4 mg/L: 4 µg/mL
Serratia marcescens S6; [11]
  MIC of antibiotic at fixed inhibitor concentration of 4 mg/L: 4 µg/mL
Acinetobacter sp. J2; Acinetobacter baumannii J2
  MIC of antibiotic: >32 µg/mL
Acinetobacter sp. J2; Acinetobacter baumannii J2, with 111 and clavulanate
  MIC of antibiotic at fixed inhibitor concentration of 4 mg/L: 4 µg/mL
Acinetobacter sp. J2; Acinetobacter baumannii J2, with 202 and clavulanate
  MIC of antibiotic at fixed inhibitor concentration of 4 mg/L: 4 µg/mL
Acinetobacter sp. J2; Acinetobacter baumannii J2, with 206 and clavulanate
  MIC of antibiotic at fixed inhibitor concentration of 4 mg/L: 4 µg/mL
Acinetobacter sp. J2; Acinetobacter baumannii J2, with 323 and clavulanate
  MIC of antibiotic at fixed inhibitor concentration of 4 mg/L: 16 µg/mL
Acinetobacter sp. J2; Acinetobacter baumannii J2, with 323 and sulbactam
  MIC of antibiotic at fixed inhibitor concentration of 4 mg/L: 1 µg/mL
Acinetobacter sp. J2; Acinetobacter baumannii J2, with 324 and clavulanate
  MIC of antibiotic at fixed inhibitor concentration of 4 mg/L: 32 µg/mL
Acinetobacter sp. J2; Acinetobacter baumannii J2, with 501
  MIC of antibiotic at fixed inhibitor concentration of 4 mg/L: <0.06 µg/mL
Acinetobacter sp. J2; Acinetobacter baumannii J2, with clavulanate (clavulanic acid)
  MIC of antibiotic at fixed inhibitor concentration of 4 mg/L: >32 µg/mL
Acinetobacter sp. J2; Acinetobacter sp. J2
  MIC of antibiotic: >32 µg/mL
